The record followed here is patent US20260286287A1, “NOVEL BACTERIAL STRAIN USEFUL FOR TREATING CUTANEOUS INFLAMMATION” (PIERRE FABRE DERMO-COSMETIQUE, priority 2023, published 2026).

One experiment deals with bacterial strain LMB275. Put plainly: Sensitivity of the bacterial strain to antibiotics, disc diffusion method. The experiment is classed as cell-based, Aquabacterium strain LMB275. As to conditions: modified R2A agar, 48 and 72 h at 30° C. The procedure:
The sensitivity of the bacterial strain to antibiotics was tested by the disc diffusion method after spreading cell suspensions (8.0 McFarland) on modified R2A agar plates. The antibiotics and their concentration used on filter-paper discs for the susceptibility assay are listed in the species definition. The effect of antibiotics on cell growth was assessed after 48 and 72 h at 30° C.
For orientation: A growth-free zone around the sample is the usual read-out of agar diffusion tests.

Experiment [1] has as its system normal human epidermal keratinocytes (NHEK) stimulated by an inflammatory cytokine mix (IL-4+IL-13+IL-22+TNF-α). Briefly: Gene expression (RT-qPCR) in cytokine-stimulated normal human epidermal keratinocytes, in vitro model of chronic atopic dermatitis. The experiment is classed as cell-based. Here is the method:
The effects of the bacterial extracts prepared in example 3 (i.e., L0, BL0, S0 and ES0) on gene expression were assessed with normal human epidermal keratinocytes (NHEK) which have been stimulated by an inflammatory cytokine mix (IL-4+IL-13+IL-22+TNF-α), a particularly useful model representative of the chronic phase of atopic dermatitis.
Keratinocytes were seeded in 24-well plates and grown for 24 hours in growth medium with culture conditions at 37° C. and 5% C02. The growth medium comprised Keratinocyte SFM (Serum Free Medium) supplemented with Epidermal Growth Factor (EGF) 0.25 ng/ml, Pituitary extract (PE) 25 μg/ml and Gentamycin 25 μg/ml. The medium was then removed and replaced by assay medium containing either no added extract or compound (negative control), one of the bacterial extracts of example 3 (L0, BL0, S0 or ES0), or the reference compound (JAK Inhibitor | at 10 μM). Cells were then pre-incubated for 24 hours. The assay medium comprised Keratinocyte SFM supplemented with Gentamycin 25 μg/ml.
After pre-incubation, the assay medium was renewed, the mix of cytokines (IL-4+IL-13+TNF-α +IL-22, each at 10 ng/ml) added and the cells then incubated for 24 hours. Cytokine stimulation induces a phenotype in NHEK which is similar to the one observed during the chronic phase of atopic dermatitis (Bernard et al., 2012). In parallel, non-stimulated controls are performed.
All experiments were performed in triplicate (n=3).
Cells from the replicates of the same experimental condition were pooled.
Total RNA was extracted with TriPure Isolation Reagent® (Roche Molecular System Inc.) according to the supplier's instruction. The complementary DNA (cDNA) was synthetised by reverse transcription of total RNA in presence of oligo (dT) and Transcriptor Reverse Transcriptase (Roche Molecular System Inc.).
RT-qPCR (real time quantitative PCR) was used to analyse the expression of markers in total RNA extracted from the cell monolayers of each experimental condition. The LightCycler® system (Roche Molecular System Inc.) was used according to the supplier's instruction,
Two reference genes (GAPDH and RPS28) were used in the PCR array for data normalisation because of their constitutive expression. Consequently, the level of expression of the target markers was compared to the mean expression level of these 2 markers for all test conditions.
Different genes markers are reported: • barrier function, differentiation, lipid and desquamation markers: coding gene of Small Proline Rich Protein 1B (SPRR1B), coding gene of Kallikrein Related Peptidase 7 (KLK7), coding gene of Involucrin (IVL), coding gene of Caspase 14 (CASP14), coding gene of Sciellin (SCEL) and coding gene of sulfotransferase family, cytosolic, 2B, member 1 (SULT2B1); • antimicrobial and innate immunity markers: coding gene of serpin peptidase inhibitor, clade B, member 13 (SERPINB13), coding gene of calcium binding protein A7 (S100A7), coding gene of Toll-like receptor 2 (TLR2); • inflammation markers: coding gene of Chemokine (C-C motif) ligand 5 (CCL5), coding gene of Chemokine (C-C motif) ligand 27 (CCL27) and coding gene of interleukin 13 receptor, alpha 2 (IL13RA2).

Setting [2] is: NHEK, cytokine mix 10 ng/ml + JAK inhibitor I 10 μM, Mean HK normalisation.
Setting [3] is: NHEK, cytokine mix 10 ng/ml + JAK inhibitor I 10 μM, Mean HK normalisation, 1440 min.
Setting [4] is: cytokine-stimulated NHEK, JAK inhibitor I 10 μM.
Where [5] appears, read: cytokine-stimulated NHEK, JAK inhibitor I 10 μM, listed as JAK Inhibitor I.

Take `CN[C@H](CC(C)C)C(=O)N[C@H]1C(=O)N[C@@H](CC(N)=O)C(=O)N[C@H]2C(=O)N[C@H]3C(=O)N[C@H](C(=O)N[C@H](C(=O)O)c4cc(O)cc(O)c4-c4cc3ccc4O)[C@H](O)c3ccc(c(Cl)c3)Oc3cc2cc(c3O[C@@H]2O[C@H](CO)[C@@H](O)[C@H](O)[C@H]2O[C@H]2C[C@](C)(N)[C@H](O)[C@H](C)O2)Oc2ccc(cc2Cl)[C@H]1O` [vancomycin]: in the experiment on bacterial strain LMB275 (disc 30 μg), the “sensitivity of the bacterial strain to the antibiotic” value (“sensitivity of the bacterial strain” below) was “sensitive”.
On to polymixin B, for which, in the experiment with bacterial strain LMB275 (disc 300 UI), the “sensitivity of the bacterial strain” value is recorded as “resistant”.
`O=C(O)c1cn(C2CC2)c2cc(N3CCNCC3)c(F)cc2c1=O` [ciprofloxacin]: the “sensitivity of the bacterial strain” value with bacterial strain LMB275 (disc 5 μg) is reported as “sensitive”.
For `CO/N=C(\C(=O)N[C@@H]1C(=O)N2C(C(=O)O)=C(COC(C)=O)CS[C@H]12)c1csc(N)n1` [cefotaxim], the “sensitivity of the bacterial strain” value with bacterial strain LMB275 (disc 30 μg) is listed as “resistant”.
As to `CC[C@H]1OC(=O)[C@H](C)[C@@H](O[C@H]2C[C@@](C)(OC)[C@@H](O)[C@H](C)O2)[C@H](C)[C@@H](O[C@@H]2O[C@H](C)C[C@H](N(C)C)[C@H]2O)[C@](C)(O)C[C@@H](C)C(=O)[C@H](C)[C@@H](O)[C@]1(C)O` [erythromycin], the “sensitivity of the bacterial strain” value in the experiment on bacterial strain LMB275 (disc 15 μg) is reported as “sensitive”.
In the case of `CO[C@H]1/C=C/O[C@@]2(C)Oc3c(C)c(O)c4c(O)c(c(/C=N/N5CCN(C)CC5)c(O)c4c3C2=O)NC(=O)/C(C)=C\C=C\[C@H](C)[C@H](O)[C@@H](C)[C@@H](O)[C@@H](C)[C@H](OC(C)=O)[C@@H]1C` [rifampicin], the “sensitivity of the bacterial strain” value in the experiment with bacterial strain LMB275 (disc 30 μg) is recorded as “sensitive”.
Same read-out and setting: under `CC1(C)S[C@@H]2[C@H](NC(=O)[C@H](N)c3ccc(O)cc3)C(=O)N2[C@H]1C(=O)O` [amoxicillin] stands “resistant”; under `CN(C)[C@@H]1C(=O)C(C(N)=O)=C(O)[C@@]2(O)C(=O)C3=C(O)c4c(O)cccc4[C@@](C)(O)[C@H]3C[C@@H]12` [tetracyclin], “sensitive”.
As to `CC1COc2c(N3CCN(C)CC3)c(F)cc3c(=O)c(C(=O)O)cn1c23` (centres unmarked) [ofloxacin], the “sensitivity of the bacterial strain” value in the experiment on bacterial strain LMB275 (disc 5 μg) was “sensitive”.
For `[H]/N=C(/N)N[C@H]1[C@H](O)[C@@H](O)[C@H](O[C@@H]2O[C@@H](C)[C@](O)(C=O)[C@H]2O[C@@H]2O[C@@H](CO)[C@H](O)[C@@H](O)[C@@H]2NC)[C@@H](N/C(N)=N\[H])[C@@H]1O` [streptomycin], the “sensitivity of the bacterial strain” value with bacterial strain LMB275 (disc 10 μg) is “sensitive”.
Consider `NC[C@H]1O[C@H](O[C@H]2[C@H](O)[C@@H](O[C@H]3O[C@H](CO)[C@@H](O)[C@H](N)[C@H]3O)[C@H](N)C[C@@H]2N)[C@H](O)[C@@H](O)[C@@H]1O` [kanamycin], for which, in the experiment with bacterial strain LMB275 (disc 30 μg), the “sensitivity of the bacterial strain” value was “sensitive”.
The same measure, in the same setting: under `O=C(N[C@H](CO)[C@H](O)c1ccc([N+](=O)[O-])cc1)C(Cl)Cl` [chloramphenicol] stands “sensitive”.
Turning to `CC(C)(C)c1nc2c3cc[nH]c(=O)c3c3cc(F)ccc3c2[nH]1` [JAK inhibitor I], in experiment [1] (setting [2]), the SPRR1B gene expression amounted to 557 % control and the SULT2B1 gene expression was 231 % control. For the same compound, in experiment [1] (setting [3]), the CASP14 gene expression worked out at 199 % control, the CCL5 gene expression amounted to 23 % control, the CCL27 gene expression was 72 % control and the IL13RA2 gene expression stood at 12 % control. Besides, in experiment [1] (setting [3]), the IVL gene expression was 986 % control, the KLK7 gene expression amounted to 146 % control, the S100A7 gene expression is 94 % control and the SCEL gene expression worked out at 141 % control. Also, in experiment [1] (setting [3]), the SERPINB13 gene expression is on record as 27 % control and the TLR2 gene expression came to 21 % control. Moreover, in experiment [1] (setting [4]), the “expression of antimicrobial and innate immunity markers (in words)” value is “decrease”; the “expression of inflammation markers (in words)” value is listed as “decrease”; the “expression of keratinocyte differentiation markers (in words)” value is “increase”. Further, in experiment [1] (setting [5]), the “expression of antimicrobial and innate immunity markers (in words)” value is “down-regulating”; the “expression of inflammation markers (in words)” value is given as “down-regulating”.
In the case of `CC1(C)S[C@@H]2[C@H](NC(=O)Cc3ccccc3)C(=O)N2[C@H]1C(=O)O` [penicillin], in the experiment with bacterial strain LMB275 (disc 10 UI), the “sensitivity of the bacterial strain” value was “resistant”.
Regarding `C[C@@H](O)[C@H]1C(=O)N2C(C(=O)O)=C(SCCN=CN)C[C@H]12` [imipenem], the “sensitivity of the bacterial strain” value in the experiment on bacterial strain LMB275 (disc 10 μg) is listed as “sensitive”.
The same measure, in the same setting: to `CC1(C)S[C@@H]2[C@H](NC(=O)[C@H](N)c3ccccc3)C(=O)N2[C@H]1C(=O)O` [ampicillin] belongs “resistant”.
